In PMC11921344, “Antimicrobial peptide DiPGLa-H exhibits the most outstanding anti-infective activity among the PGLa variants based on a systematic comparison” (Applied and Environmental Microbiology, 2025):
Where no end group is shown, it is not given here.

Columns and labels:
A. baumannii ATCC19606 = format: cell-based, Acinetobacter baumannii
Procedure: (§1) The antibacterial activity was evaluated using a standard MIC and MBC assay according to the National Committee for Clinical Laboratory Standards (NCCLS). MIC, MBC assay, and time-kill curves for the optimal peptide are provided in the Supplementary Materials.
(§2) Antimicrobial Activity Assays. The antibacterial activity of the peptides was determined using a method designed from the National Committee for Clinical Laboratory Standards (NCCLS) in the United States. All the strains used in the experiment are preserved in the laboratory. Briefly, log phase bacterial cells were diluted in MHB to a final concentration of 0.5-1x10^5 CFU/mL. Subsequently, 50μL of different concentrations of polypeptides were incubated with 50 μL of bacterial solution in sterile 96-well plates. In the minimum inhibitory concentration (MIC) assay, the plate was incubated at 37°C for 24 h, and the minimum inhibitory concentration (MIC) was determined by the absorbance at 492 nm of the microplate reader, and the minimum inhibitory concentration (MIC) inhibited 95% of bacteria grow. Determination of minimum bactericidal concentration: the plate was incubated at 37°C for 4 hours, 50 μL of the mixture was taken out of each well, diluted with an appropriate amount of PBS, smeared on the agar plate, and cultured overnight. Colonies were counted and the initial CFU/well was retrospectively calculated the following day. The lowest concentration of peptide that kills 99.9% of bacterial cells is the minimum bactericidal concentration (µM), Each test was replicated at least 3 times.

P. aeruginosa ATCC27853 = format: cell-based, Pseudomonas aeruginosa
Procedure: as §1, §2

Gram-positive bacteria = assay: Geometric mean MIC and therapeutic index, Gram-positive; format: cell-based; conditions: geometric mean of the peptide MICs against Gram-positive strains
Procedure: as §1, §2

E. coli K88 [1] = assay: Heat, pH and salt sensitivity assay (MIC); format: cell-based, Escherichia coli; conditions: salts of Table S2
Procedure: To assess the stability of the peptides in physiological conditions, the peptides were incubated with E. coli K88 and S. aureus Mu50 in the presence of salts (150 mM NaCl, 4.5 mM KCl, 6 µM NH4Cl, 8 µM ZnCl2, 1 mM MgCl2, 4 µM FeCl3, and 2.5 µM CaCl2) in accordance with a previously reported protocol. To determine the thermal stability of the peptides, the peptides were pretreated at 100°C for 30 min, 60 min, and 90 min and cooled on ice for 10 min. The effect of acid and base on the antimicrobial activity was measured by treating the peptides for 2 h at pH of 2, 4, 10, and 12 in 10 mM sodium phosphate buffer adjusted with HCl or NaOH.

E. coli K88 [2] = assay: ROS generation (DCFH-DA); format: cell-based, Escherichia coli; conditions: 8 µM DiPGLa-H, 1 h 37°C, DCFH-DA 10 µM
Procedure: 2′,7′-Dichlorofluorescin diacetate (DCFH-DA) was used to determine the intracellular production of ROS as previously described. S. aureus Mu50 and E. coli K88 cells were diluted until OD600 = 0.4 and incubated in different concentrations of peptide at 37°C for 1 h. Next, the mixed solution was incubated with 10 µM DCFH-DA at 37°C for 1 h. The fluorescence (excitation wavelength = 488 nm, emission wavelength = 525 nm) was monitored with an Infinite 200 pro fluorescence spectrophotometer (Tecan, China). Each test was measured in triplicate and tested twice.

For “KIAKVALKALKIAKVALKAL-NH2 (C-terminus assumed) [DiPGLa-H]”, the “MBC A. baumannii ATCC19606” value (A. baumannii ATCC19606; ATCC19606, 4 h) was 4 µM, the “MIC A. baumannii ATCC19606” value (A. baumannii ATCC19606; ATCC19606, 24 h) was 1 µM and the MBC P. aeruginosa ATCC27853 (P. aeruginosa ATCC27853; ATCC27853, 4 h) was 2 µM. For the same substance, the MIC P. aeruginosa ATCC27853 (P. aeruginosa ATCC27853; ATCC27853, 24 h) was 2 µM, the “GMMIC Gram-positive” value (Gram-positive bacteria) was 5.66 µM and the “elevation in MIC values by cationic ions, E. coli K88” value (E. coli K88 [1]) was 2–8 times. For the same substance, the “elevation of ROS production vs untreated” value (E. coli K88 [2]) was 11.3 fold and the fold higher TIall vs kiadin-2 was 2.5 fold.
